Results published in patent publication US9047904B2, “Magnetic recording medium” (priority 2009, dated 2015).

Conditions: 50 mg in 20 mL water + 30 mL tetrahydrofuran; titrated with 0.1N NaOH; pH at half of the neutralization titration quantity
Experimental: In the present invention, the term “acid strength” refers to a value that is measured by the following method.
A 50 mg sample of organic acid A or B is dissolved in a mixed solution of 20 mL of water and 30 mL of tetrahydrofuran. Titration to neutral is conducted using a model GT-100 Win automatic titrator made by Mitsubishi Chemical Analytech with 0.1N NaOH (Wako Pure Chemical Industries). The pH corresponding to half of the titration quantity that is added dropwise to attain the neutralization point is read, and that pH is adopted as the acid strength.
<Acid Strength of Organic Acids A and B>
A 50 mg sample of organic acid A or B was dissolved in a mixed solution of 20 mL of water and 30 mL of tetrahydrofuran. Titration to neutral was conducted with 0.1N NaOH (Wako Pure Chemical Industries) using a model GT-100 Win automatic titrator made by Mitsubishi Chemical Analytech. The pH corresponding to half of the titration quantity that was added dropwise to attain the neutralization point was read, and that pH was adopted as the acid strength.

| Compound | pKa(A) (acid strength of organic acid A) | pKa(B) (acid strength of organic acid B) |
| --- | --- | --- |
| Phenyl phosphate | 4.01 |  |
| O=C(O)CC(O)(CC(=O)O)C(=O)O [Citric acid, citric acid] |  | 5.84 |
